Like-named read-outs stand apart in the source and are kept apart here.
Tested on: NCI 60 cancer cell lines
Assay: NCI anticancer screening over a panel of 60 cancer cells, single concentration 10 µM
Type: cell-based, human
Conditions: Homo sapiens, read-out: Growth inhibition (GI %)
How it was run: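 Primary single-dose screen at 10 µM over the NCI panel of 60 human tumour cell lines (leukemia, CNS, lung, colon, kidney, ovary, breast, prostate). The standard NCI Developmental Therapeutics Program protocol was used.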

[1] = A549, Non-small cell lung cancer A549/ATCC, 10 μM
[2] = BT-549, Breast cancer BT-549, 10 μM
[3] = CAKI-1, Renal cancer CAKI-1, 10 μM
[4] = CCRF-CEM, Leukemia CCRF-CEM, 10 μM
[5] = COLO 205, Colon cancer COLO 205, 10 μM
[6] = DU-145, Prostate cancer DU-145, 10 μM
[7] = EKVX, Non-small cell lung cancer EKVX, 10 μM
[8] = HCC 2998, Colon cancer HCC-2998, 10 μM
[9] = HCT-15, Colon cancer HCT-15, 10 μM
[10] = HCT-116, Colon cancer HCT-116, 10 μM
[11] = HL-60, Leukemia HL-60(TB), 10 μM
[12] = HOP-62, Non-small cell lung cancer HOP-62, 10 μM
[13] = HOP-92, Non-small cell lung cancer HOP-92, 10 μM
[14] = HT-29, Colon cancer HT29, 10 μM
[15] = Hs-578T, Breast cancer HS 578T, 10 μM
[16] = IGROV-1, Ovarian cancer IGROV1, 10 μM
[17] = LOX IMVI, Melanoma LOX IMVI, 10 μM
[18] = MCF7, Breast cancer MCF7, 10 μM
[19] = MDA-MB-435, Melanoma MDA-MB-435, 10 μM
[20] = MDA-MB-468, Breast cancer MDA-MB-468, 10 μM
[21] = Malme-3M, Melanoma MALME-3M, 10 μM
[22] = NCI-H23, Non-small cell lung cancer NCI-H23, 10 μM
[23] = NCI-H226, Non-small cell lung cancer NCI-H226, 10 μM
[24] = NCI-H322M, Non-small cell lung cancer NCI-H322M, 10 μM
[25] = NCI-H460, Non-small cell lung cancer NCI-H460, 10 μM
[26] = NCI-H522, Non-small cell lung cancer NCI-H522, 10 μM
[27] = NCI/ADR-RES, Ovarian cancer NCI/ADR-RES, 10 μM
[28] = OVCAR-3, Ovarian cancer OVCAR-3, 10 μM
[29] = OVCAR-4, Ovarian cancer OVCAR-4, 10 μM
[30] = OVCAR-5, Ovarian cancer OVCAR-5, 10 μM
[31] = OVCAR-8, Ovarian cancer OVCAR-8, 10 μM
[32] = RPMI-8226, Leukemia RPMI-8226, 10 μM
[33] = RXF 393, Renal cancer RXF 393, 10 μM
[34] = SF-268, CNS Cancer SF-268, 10 μM
[35] = SF-295, CNS Cancer SF-295, 10 μM
[36] = SF-539, CNS Cancer SF-539, 10 μM
[37] = SK-MEL-2, Melanoma SK-MEL-2, 10 μM
[38] = SK-MEL-5, Melanoma SK-MEL-5, 10 μM
[39] = SK-MEL-28, Melanoma SK-MEL-28, 10 μM
[40] = SK-OV-3, Ovarian cancer SK-OV-3, 10 μM
[41] = SN12C, Renal cancer SN12C, 10 μM
[42] = SNB-19, CNS Cancer SNB-19, 10 μM
[43] = SNB-75, CNS Cancer SNB-75, 10 μM
[44] = SW-620, Colon cancer SW-620, 10 μM
[45] = T47D, Breast cancer T-47D, 10 μM
[46] = TK-10, Renal cancer TK-10, 10 μM
[47] = UACC-62, Melanoma UACC-62, 10 μM
[48] = UACC-257, Melanoma UACC-257, 10 μM
[49] = UO-31, Renal cancer UO-31, 10 μM

CC(=O)c1cnn(-c2cc(=O)[nH]c3ccccc23)c1C [Compound 2a, 4-(4-Acetyl-5-methyl-1H-pyrazol-1-yl)quinolin-2(1H)-one]
inhibition at 10 µM (786-0, Renal cancer 786-0, 10 μM): < 5%
inhibition at 10 µM (A498, Renal cancer A498, 10 μM): < 5%
inhibition at 10 µM [1]: 5.98%
inhibition at 10 µM (ACHN, Renal cancer ACHN, 10 μM): 7.82%
inhibition at 10 µM [2]: 6.06%
inhibition at 10 µM [3]: 21.5%
inhibition at 10 µM [4]: 11.3%
inhibition at 10 µM [5]: < 5%
inhibition at 10 µM [6]: < 5%
inhibition at 10 µM [7]: 54.4%
inhibition at 10 µM [8]: < 5%
inhibition at 10 µM [9]: < 5%
inhibition at 10 µM [10]: < 5%
inhibition at 10 µM [11]: 6.26%
inhibition at 10 µM [12]: 22.9%
inhibition at 10 µM [13]: 25.1%
inhibition at 10 µM [14]: < 5%
inhibition at 10 µM [15]: 8.26%
inhibition at 10 µM [16]: 37.9%
inhibition at 10 µM (K562, Leukemia K-562, 10 μM): 9.72%
inhibition at 10 µM (KM12, Colon cancer KM12, 10 μM): < 5%
inhibition at 10 µM [17]: 15.6%
inhibition at 10 µM (Leukemia SR, 10 μM): 5.8%
inhibition at 10 µM [18]: 17.3%
inhibition at 10 µM (MDA-MB-231, Breast Cancer MDA-MB 231/ATCC, 10 μM): 26.9%
inhibition at 10 µM [19]: < 5%
inhibition at 10 µM [20]: < 5%
inhibition at 10 µM (MOLT-4, Leukemia MOLT-4, 10 μM): 7.63%
inhibition at 10 µM [21]: 11.3%
inhibition at 10 µM (Melanoma M14, 10 μM): < 5%
inhibition at 10 µM [22]: 10.3%
inhibition at 10 µM [23]: 32.4%
inhibition at 10 µM [24]: 16.1%
inhibition at 10 µM [25]: < 5%
inhibition at 10 µM [26]: 10.3%
inhibition at 10 µM [27]: 8.35%
inhibition at 10 µM [28]: < 5%
inhibition at 10 µM [29]: < 5%
inhibition at 10 µM [30]: < 5%
inhibition at 10 µM [31]: < 5%
inhibition at 10 µM (Prostate cancer PC-3, 10 μM): 15.2%
inhibition at 10 µM [32]: 26.6%
inhibition at 10 µM [33]: < 5%
inhibition at 10 µM [34]: < 5%
inhibition at 10 µM [35]: 6.24%
inhibition at 10 µM [36]: 13%
inhibition at 10 µM [37]: < 5%
inhibition at 10 µM [38]: 11.9%
inhibition at 10 µM [39]: < 5%
inhibition at 10 µM [40]: 20%
inhibition at 10 µM [41]: 8.07%
inhibition at 10 µM [42]: 11.4%
inhibition at 10 µM [43]: < 5%
inhibition at 10 µM [44]: < 5%
inhibition at 10 µM [45]: 16.9%
inhibition at 10 µM [46]: < 5%
inhibition at 10 µM (U-251, CNS Cancer U251, 10 μM): 8.86%
inhibition at 10 µM [47]: 19.5%
inhibition at 10 µM [48]: < 5%
inhibition at 10 µM [49]: 38.3%

CC(=O)c1cnn(-c2cc(=O)[nH]c3ccc(Cl)cc23)c1C [Compound 2d, 4-(4Aacetyl-5-methyl-1H-pyrazol-1-yl)-6-chloroquinolin-2(1H)-one]
inhibition at 10 µM (A498, Renal cancer A498, 10 μM): < 5%
inhibition at 10 µM [1]: 5.11%
inhibition at 10 µM (ACHN, Renal cancer ACHN, 10 μM): 7.6%
inhibition at 10 µM [2]: < 5%
inhibition at 10 µM [3]: 15.1%
inhibition at 10 µM [4]: 8.99%
inhibition at 10 µM [5]: < 5%
inhibition at 10 µM [6]: < 5%
inhibition at 10 µM [7]: 13.9%
inhibition at 10 µM [8]: < 5%
inhibition at 10 µM [9]: < 5%
inhibition at 10 µM [10]: < 5%
inhibition at 10 µM [11]: 6.19%
inhibition at 10 µM [12]: 9.35%
inhibition at 10 µM [13]: 13.4%
inhibition at 10 µM [14]: < 5%
inhibition at 10 µM [15]: < 5%
inhibition at 10 µM [16]: 7.41%
inhibition at 10 µM (K562, Leukemia K-562, 10 μM): 5.5%
inhibition at 10 µM (KM12, Colon cancer KM12, 10 μM): < 5%
inhibition at 10 µM [17]: 11.2%
inhibition at 10 µM (Leukemia SR, 10 μM): < 5%
inhibition at 10 µM [18]: 6.43%
inhibition at 10 µM [19]: < 5%
inhibition at 10 µM [20]: < 5%
inhibition at 10 µM (MOLT-4, Leukemia MOLT-4, 10 μM): 8.77%
inhibition at 10 µM [21]: 13.3%
inhibition at 10 µM (Melanoma M14, 10 μM): < 5%
inhibition at 10 µM [22]: 5.37%
inhibition at 10 µM [23]: 16.6%
inhibition at 10 µM [24]: 12.2%
inhibition at 10 µM [25]: < 5%
inhibition at 10 µM [26]: 5.29%
inhibition at 10 µM [27]: 5.32%
inhibition at 10 µM [28]: < 5%
inhibition at 10 µM [29]: < 5%
inhibition at 10 µM [30]: < 5%
inhibition at 10 µM [31]: < 5%
inhibition at 10 µM (Prostate cancer PC-3, 10 μM): 11%
inhibition at 10 µM [32]: 9.16%
inhibition at 10 µM [33]: < 5%
inhibition at 10 µM [34]: < 5%
inhibition at 10 µM [35]: 5.21%
inhibition at 10 µM [36]: 14.4%
inhibition at 10 µM [37]: < 5%
inhibition at 10 µM [38]: 5.89%
inhibition at 10 µM [39]: < 5%
inhibition at 10 µM [40]: 6.14%
inhibition at 10 µM [41]: 15.2%
inhibition at 10 µM [42]: 7.35%
inhibition at 10 µM [43]: < 5%
inhibition at 10 µM [44]: < 5%
inhibition at 10 µM [45]: < 5%
inhibition at 10 µM [46]: < 5%
inhibition at 10 µM (U-251, CNS Cancer U251, 10 μM): < 5%
inhibition at 10 µM [47]: 15.7%
inhibition at 10 µM [48]: < 5%
inhibition at 10 µM [49]: 35%

— paper PMC12638379, “An innovative approach to development of new pyrazolylquinolin-2-one hybrids as dual EGFR and BRAF^V600E inhibitors” (Molecular Diversity, 2025)
